{
  "source": "the Deep4Chem optical property database",
  "experiment": "photoluminescence quantum yield (fraction); solvent given as SMILES",
  "data": [
    {"smiles": "F[B-]1(F)n2c(c3cccc4cccc2c43)=Nc2cccc[n+]21", "values": [
      {"measurement": "photoluminescence quantum yield", "setting": "in C1CCOC1", "result": 0.99},
      {"measurement": "photoluminescence quantum yield", "setting": "in CC#N", "result": 0.99},
      {"measurement": "photoluminescence quantum yield", "setting": "in CCCCCC", "result": 0.99},
      {"measurement": "photoluminescence quantum yield", "setting": "in Cc1ccccc1", "result": 0.99},
      {"measurement": "photoluminescence quantum yield", "setting": "in ClCCl", "result": 0.99}
    ]},
    {"smiles": "F[B-]1(F)Oc2ccccc2-c2cnc3ccccc3[n+]21", "values": [
      {"measurement": "photoluminescence quantum yield", "setting": "in Cc1ccccc1", "result": 0.086}
    ]},
    {"smiles": "F[B-]1(F)Oc2ccc(Br)cc2-c2c3c(c4c([n+]21)CCc1ccccc1-4)CCc1ccccc1-3", "values": [
      {"measurement": "photoluminescence quantum yield", "setting": "in ClCCl", "result": 0.23}
    ]},
    {"smiles": "CCc1cc(CC)cc(-n2c3ccccc3c3cc4c(cc32)c2ccccc2n4-c2cc(CC)cc(CC)c2)c1", "values": [
      {"measurement": "photoluminescence quantum yield", "setting": "in ClC(Cl)Cl", "result": 0.14}
    ]},
    {"smiles": "COc1cc2c(cc1-c1ccc(Cl)cc1)Cc1c3c(c4c(c1-2)-c1cc(OC)c(-c2ccc(Cl)cc2)cc1C4)C(=O)N(CCC(C)C)C3=O", "values": [
      {"measurement": "photoluminescence quantum yield", "setting": "in C1CCOC1", "result": 0.52}
    ]},
    {"smiles": "Cc1cc(C)c2cc3cc(C)ncc3cc2c1", "values": [
      {"measurement": "photoluminescence quantum yield", "setting": "in CCO", "result": 0.44}
    ]},
    {"smiles": "CC1[C@@H]2[C@@H]1[C@]1(c3ccccc3)N=NC2(c2ccccc2)C2C3C=CC(C3)C21", "note": "(stereo partly specified)", "values": [
      {"measurement": "photoluminescence quantum yield", "setting": "in CC#N", "result": 0.018}
    ]},
    {"smiles": "C(#Cc1ncc(-c2ccccc2)o1)c1cccnc1", "values": [
      {"measurement": "photoluminescence quantum yield", "setting": "in ClCCl", "result": 0.13}
    ]},
    {"smiles": "COc1cc(-c2cc(N3CCCCC3)c(C#N)c3c2-c2cccc4cccc-3c24)cc(OC)c1OC", "values": [
      {"measurement": "photoluminescence quantum yield", "setting": "in O", "result": 0.28}
    ]},
    {"smiles": "CC[N+]1(CC)CN2C(=N1)C(C(=O)O)=Cc1cc(Cl)ccc12", "values": [
      {"measurement": "photoluminescence quantum yield", "setting": "in O", "result": 0.352}
    ]},
    {"smiles": "c1ccc(C2c3ccccc3-c3cc4c(cc32)-c2ccccc2C4c2ccccc2)cc1", "note": "(stereo unspecified)", "values": [
      {"measurement": "photoluminescence quantum yield", "setting": "in ClCCl", "result": 0.36}
    ]},
    {"smiles": "O=c1c2ccccc2nc2ccccn12", "values": [
      {"measurement": "photoluminescence quantum yield", "setting": "in ClCCl", "result": 0.96}
    ]},
    {"smiles": "CN(c1ccccc1)c1ccc(N(c2ccccc2)c2ccc3ccc4c(N(c5ccccc5)c5ccc(N(C)c6ccccc6)cc5)ccc5ccc2c3c54)cc1", "values": [
      {"measurement": "photoluminescence quantum yield", "setting": "in ClCCl", "result": 0.01}
    ]},
    {"smiles": "N#Cc1cnc(-c2c3ccccc3cc3ccccc23)nc1", "values": [
      {"measurement": "photoluminescence quantum yield", "setting": "in CCO", "result": 0.07},
      {"measurement": "photoluminescence quantum yield", "setting": "in ClCCl", "result": 0.07}
    ]},
    {"smiles": "F[Si](c1c2ccccc2cc2ccccc12)(c1c2ccccc2cc2ccccc12)c1c2ccccc2cc2ccccc12", "values": [
      {"measurement": "photoluminescence quantum yield", "setting": "in C1CCOC1", "result": 0.033},
      {"measurement": "photoluminescence quantum yield", "setting": "in ClC(Cl)Cl", "result": 0.036}
    ]},
    {"smiles": "COc1ccc2cc(C3=[N+]4C(=Nc5c(-c6ccc7ccccc7c6)c(Br)c(-c6ccc7cc(OC)ccc7c6)n5[B-]4(F)F)C(c4ccc5ccccc5c4)=C3Br)ccc2c1", "values": [
      {"measurement": "photoluminescence quantum yield", "setting": "in ClCCl", "result": 0}
    ]},
    {"smiles": "Cc1ccccc1", "values": [
      {"measurement": "photoluminescence quantum yield", "setting": "in C1CCCCC1", "result": 0.22}
    ]},
    {"smiles": "CCCCCCn1c2cc(/C=C/c3cccs3)ccc2c2ccc(/C=C/c3cccs3)cc21", "values": [
      {"measurement": "photoluminescence quantum yield", "setting": "in ClC(Cl)Cl", "result": 0.89}
    ]},
    {"smiles": "CCCCCCCCCCCCCCCCCCOC(=O)/C=C/C1=CC2=C(c3c(C)cc(C)cc3C)c3cc(/C=C/C(=O)OCCCCCCCCCCCCCCCCCC)cn3[B-](F)(F)[N+]2=C1", "values": [
      {"measurement": "photoluminescence quantum yield", "setting": "in ClCCl", "result": 0.34}
    ]},
    {"smiles": "CCC1=C(C)C2=Cc3c4ccccc4c4n3[B-](c3ccncc3)(Oc3ccccc3-4)[N+]2=C1C=Cc1ccc(OC)cc1", "note": "(stereo unspecified)", "values": [
      {"measurement": "photoluminescence quantum yield", "setting": "in CC#N", "result": 0.37},
      {"measurement": "photoluminescence quantum yield", "setting": "in CCCCCC", "result": 0.36},
      {"measurement": "photoluminescence quantum yield", "setting": "in Cc1ccccc1", "result": 0.35},
      {"measurement": "photoluminescence quantum yield", "setting": "in ClCCl", "result": 0.35}
    ]},
    {"smiles": "O=C1c2ccccc2-c2ccccc21", "values": [
      {"measurement": "photoluminescence quantum yield", "setting": "in C1CCCCC1", "result": 0.0004},
      {"measurement": "photoluminescence quantum yield", "setting": "in CC#N", "result": 0.027},
      {"measurement": "photoluminescence quantum yield", "setting": "in CCO", "result": 0.0009},
      {"measurement": "photoluminescence quantum yield", "setting": "in c1ccccc1", "result": 0.0078}
    ]},
    {"smiles": "Cc1ccc(/C=C/c2nc3ccccc3s2)cc1", "values": [
      {"measurement": "photoluminescence quantum yield", "setting": "in C1CCCCC1", "result": 0.02},
      {"measurement": "photoluminescence quantum yield", "setting": "in CO", "result": 0.003}
    ]},
    {"smiles": "Fc1ccc(-c2ccc(-c3cc(-c4ccccn4)nc(-c4ccccn4)c3)cc2)c(F)c1", "values": [
      {"measurement": "photoluminescence quantum yield", "setting": "in ClCCl", "result": 0.16}
    ]},
    {"smiles": "c1ccc(-c2nc(-c3ccccc3)nc(-c3ccc(-n4c5ccccc5c5c6c(ccc54)-c4ccccc4C6(c4ccccc4)c4ccccc4)cc3)n2)cc1", "values": [
      {"measurement": "photoluminescence quantum yield", "setting": "in O=P(c1ccccc1)(c1ccccc1)c1ccccc1Oc1ccccc1P(=O)(c1ccccc1)c1ccccc1", "result": 0.979}
    ]},
    {"smiles": "CCOC(=O)C1=C(N)n2c(=O)c3ccccc3c(=O)n2C1c1ccc([N+](=O)[O-])cc1", "note": "(stereo unspecified)", "values": [
      {"measurement": "photoluminescence quantum yield", "setting": "in CS(C)=O", "result": 0.049}
    ]},
    {"smiles": "COc1cc(OC)cc(C2=C(c3cc(OC)c(OC)c(OC)c3)C3=Nc4c(-c5cc(OC)c(OC)c(OC)c5)c(-c5cc(OC)cc(OC)c5)c(-c5ccc(C(C)(C)C)cc5)n4[B-](F)(F)[N+]3=C2c2ccc(C(C)(C)C)cc2)c1", "values": [
      {"measurement": "photoluminescence quantum yield", "setting": "in Cc1ccccc1", "result": 0.01}
    ]},
    {"smiles": "c1ccc(-c2nn(-c3ccccc3)c3nc4ccccc4cc23)cc1", "values": [
      {"measurement": "photoluminescence quantum yield", "setting": "in C1CCCCC1", "result": 0.86},
      {"measurement": "photoluminescence quantum yield", "setting": "in C1CCOC1", "result": 0.9},
      {"measurement": "photoluminescence quantum yield", "setting": "in CC#N", "result": 0.73},
      {"measurement": "photoluminescence quantum yield", "setting": "in CC(C)=O", "result": 0.85},
      {"measurement": "photoluminescence quantum yield", "setting": "in CCCCCl", "result": 0.91},
      {"measurement": "photoluminescence quantum yield", "setting": "in CCCCOCCCC", "result": 0.88},
      {"measurement": "photoluminescence quantum yield", "setting": "in CN(C)C=O", "result": 0.78}
    ]}
  ]
}
